The record followed here is a melting point compilation (Tetko et al.; mined from patent text by program, amines drawn as free bases though some values may be those of a salt).

Some results are limits rather than exact numbers.

`Oc1c(Cl)cc(Cl)c2cc(Cl)cnc12` gave a melting point of 144 to 147 °C.

With `O=C1OCCN1c1cc(-c2ccnc(Nc3cccc(Cl)c3)n2)ccn1`, the melting point fell in the range of 162 to 163 °C.

`COC(=O)N(CC(=O)OC(C)(C)C)S(=O)(=O)c1ccc(N2CCC(NC[C@H](O)c3ccc(O)c(NS(C)(=O)=O)c3)CC2)cc1` showed a melting point of 110 to 115 °C.

In turn, `CON=C(C(=O)OC)c1cccs1` returned a melting point of 106 °C.

In the case of `Cn1cc(-c2cccc(Br)c2)c(=O)c(-c2cccc(Br)c2)c1`, the melting point worked out at 216 °C.

Compound `COC(=O)Cc1ccc([N+](=O)[O-])cc1` came in with a melting point of 45 to 46 °C.

`CC1(C)Cc2ccccc2C1NC=NC#N` (stereo not drawn) yielded a melting point of 164 to 167 °C.

`CCNC(=O)C1CC2(NC(=O)NC2=O)c2cc(F)ccc2O1` (stereo not drawn) came in with a melting point above 300 °C.

As to `O=C(c1ccc(Cl)c([N+](=O)[O-])c1)c1cc2ccccc2o1`, the melting point worked out at 132 °C.

The compound `CC1(C)c2ccccc2-c2[nH]c3ccccc3c21` had a melting point of 160 °C.

Regarding `CC(C)(C)C(=O)Oc1ccc(C(=O)NNC(=O)c2occ(-c3ccccc3)c2-c2ccccc2)cc1C#N`, the melting point lay in the range of 152 to 154 °C.

Take `N#CC[C@@H](O)CC(=O)NN`: the melting point fell in the range of 134 to 136 °C.

`CCOC(=O)C1C(=O)Nc2ccccc2SC1c1ccc(C)cc1` (stereo not drawn) yielded a melting point of 185 °C.

For the compound `Nc1cc(=O)n(Cc2ccc(F)cc2)[nH]1`, the melting point was found to be 148 °C.

The compound `CC1CCN(S(=O)(=O)c2cc(C#N)ccc2Oc2cc(Cl)ccc2Cl)CC1` displayed a melting point of 127 to 130 °C.

Regarding `O=C(O)C1CCCc2c(-c3ccc(Cl)cc3)noc2C1` (stereo not drawn), the melting point lay within 215 to 217 °C.

As to `CCCCCCS(=O)(=O)c1nn2c(=O)cc(C#N)nc2s1`, the melting point was 144 to 146 °C.

As for `CN1CN(C(=O)c2c(F)cccc2F)C(=O)N(c2ccc(S(=O)C(F)F)cc2F)C1` (stereo not drawn), the melting point lay in the range of 50 to 55 °C.

In the case of `CCc1c(N)c(C)cc(Cc2cc(C)c(N)c(CC)c2Cl)c1Cl`, the melting point was 143 to 148 °C.

In the case of `CCOC(=O)/C=C/c1c(C)nn(Cc2ccc(OCc3nc(-c4ccccc4)oc3C)cc2)c1C`, the melting point is 98 to 99 °C.

Consider `COCC(=O)c1cnc2c(OC)cccc2c1Cl`, for which the melting point fell in the range of 96 to 98 °C.

For the compound `COC(=O)CCn1nnnc1CC[C@H](NC(=O)OCc1ccccc1)C(=O)OC`, the melting point was 80 to 81 °C.

As for `O=C1c2ccccc2-c2c1c1ccccc1c(=O)n2CCCCCCCCCCCNS(=O)(=O)c1ccccc1`, the melting point lay in the range of 170 to 172 °C.

Compound `CN1CC(CCn2cccn2)Oc2ncccc2C1=O` (stereo not drawn) returned a melting point of 132 to 134 °C.

`O=C(O)c1cnccc1Cc1cc(Cl)ccc1F` yielded a melting point of 174 to 176 °C.

Consider `CC(C)C(=O)Nc1cccc(N(CCO)CCO)c1`, for which the melting point was in the range of 120 to 122 °C.

For `COc1ccc(CC(O)C(=O)c2ccccc2)cc1` (stereo not drawn), the melting point was 100 °C.

Consider `CN(C(=O)c1ccc(Cl)c(Cl)c1)C1CCN(C)C12CCCCC2` (stereo not drawn), for which the melting point is 138 to 140 °C.

In the case of `COC(=O)c1ccc(I)cc1N`, the melting point was 63 to 67 °C.

In turn, `COc1ccc(-c2c(CO)[nH]c3cc(OC)c(OC)cc23)cc1` registered a melting point of 169 to 170 °C.

`CCCCCCCCCCCCCCCCNc1ccc(C(=O)NS(C)(=O)=O)cc1` showed a melting point of 173 to 175 °C.

In the case of `NC(CC(=O)O)c1ccc2c(c1)OCO2` (stereo not drawn), the melting point was 223 to 224 °C.

`O=S(=O)(Nc1cccc(CCOCc2csc(-c3ccccc3)n2)c1)C(F)(F)F` registered a melting point of 112 to 113 °C.

For `CS(=O)(=O)N1Cc2nc3c(N)nc4c(c3n2C(CCCNC(=O)N2CCOCC2)C1)CCCC4` (stereo not drawn), the melting point lay in the range of 149 to 160 °C.

With `O=C1/C(=C(\NC2CC2)c2ccccc2)Sc2ccccc21`, the melting point was in the range of 131 to 132 °C.

Consider `COC(=O)c1ccc(CSc2c(C(N)=O)sc3ccc(OC)cc23)cc1`, for which the melting point lay in the range of 150 to 152 °C.

`CCOC(=O)c1c(CCc2c[nH]nn2)nc2sc3c(c2c1-c1ccc(OC)c(OC)c1)CCN(C(=O)c1ccccc1)C3`: the melting point lay within 184 to 185 °C.

`CC(C)(C)OC(=O)C[C@@H](CC1CCCC1)C(=O)O` yielded a melting point of 86.5 to 88 °C.

In turn, `Cc1cccc(C)c1N(CC(C)O)S(C)(=O)=O` (stereo not drawn) yielded a melting point of 81 to 84 °C.

Compound `Cn1cc(-c2ccccc2)c(=S)c(-c2ccccc2)c1` registered a melting point of 168 to 171 °C.

For `CCN(CC)CCCCC1CCCCN1CCNC(=O)N1c2ccccc2C(=O)Nc2cccnc21` (stereo not drawn), the melting point is 155 to 157 °C.

In turn, `CC(C)(C)C(=O)N[C@@H](CS)C(=O)O` returned a melting point of 140 °C.

In the case of `CCOCCn1c(N2CCN(CC)CC2)nc2ccccc21`, the melting point fell in the range of 134 to 136 °C.

Regarding `O=[N+]([O-])c1c(Br)c(Br)cc2c1OC(F)(F)C(F)(F)O2`, the melting point was in the range of 91 to 92 °C.

As for `COC(=O)c1ccc(Sc2ccc(OCCCCl)cc2)cc1`, the melting point fell in the range of 65 to 67 °C.

With `O=C(O)c1ccc(OCC2CC(=O)N(c3ccc(OC4CCCCC4O)cc3)C2)cc1` (stereo not drawn), the melting point fell in the range of 203 to 208 °C.

For the compound `CCC(CC)n1c(=O)n(C)c2c(Oc3c(C)cc(C)cc3C)nc(C)cc21`, the melting point lay within 152 to 154 °C.

`COC(=O)C(=O)c1cc(C(C)(C)C)c(O)c(C(C)(C)C)c1` registered a melting point of 82.5 to 84 °C.

Compound `CCC1(CCCCCl)C(=O)Nc2ccc(C)cc21` (stereo not drawn) yielded a melting point of 79 to 80 °C.

As for `COc1ccc2c(c1OC)C(=O)OC21CN(C)Cc2ccccc21` (stereo not drawn), the melting point is 193 to 194 °C.

The compound `CCCc1oc(C)cc(=O)c1C(=O)Nc1cccc(C)c1C` gave a melting point of 133 to 135 °C.

Consider `O=C1NCCN(N=Cc2ccccc2)C1=O`, for which the melting point fell in the range of 231 to 234 °C.

Turning to `COc1cccc(-n2cccn2)c1C#N`, the melting point was 93 to 94 °C.

For the compound `CN1CC=C(c2c[nH]c3ccc(NC(=N)c4ccco4)cc23)CC1`, the melting point was in the range of 212 to 215 °C.

Take `CC(=O)SCCC(=O)N1CC[C@H](SC(C)=O)[C@H]1C(=O)O`: the melting point lay within 145 to 148 °C.

Regarding `CCC(O)(c1ccc(O)cc1)c1ccc(Cl)cc1` (stereo not drawn), the melting point fell in the range of 148 to 149 °C.

Turning to `NNc1cc(OC2CCCC2)c(Cl)cc1F`, the melting point was 77 to 79 °C.

For `Cc1oc(-c2ccccc2)nc1COc1ccc(COc2nn(C)cc2CC(=O)O)cc1`, the melting point lay in the range of 133 to 134 °C.

Take `CCN(CC)C(=O)c1cccc(I)c1C(=O)O`: the melting point is 120 to 122 °C.

With `CC(C)(C)OC(=O)CN1C(=O)[C@@H](N)[C@H](c2ccccc2)Sc2ccccc21` (relative stereo), the melting point lay in the range of 172 to 174 °C.

`COc1c(C)c(C)c(OC)c(CCCOc2ccc(CC3SC(=O)NC3=O)cc2)c1C` (stereo not drawn) came in with a melting point of 111 to 113 °C.

Turning to `Cc1nc2c(c(N)c1C(=O)O)c1ccccc1n2C`, the melting point lay within 230 to 232 °C.

`CC(C)(Cc1cccc2ccccc12)NC=O` had a melting point of 79 to 80 °C.

In turn, `COc1ccc(C2Sc3c(ccc4ccccc34)N(CCCN(C)C)C(=O)C2O)cc1` (stereo not drawn) displayed a melting point of 123 to 124 °C.

`CCCn1nc(-c2ccc(OC)cc2)cc(C(=O)NC)c1=O`: the melting point lay in the range of 106 to 107 °C.

Regarding `CCS(=O)(=O)c1ccc2cc(C(C)=O)ccc2c1`, the melting point worked out at 133 °C.

In the case of `CC(O)CN(CCc1ccc(Nc2ncc3c(n2)-c2ccccc2C(c2cccc(Br)c2)C3)cc1)Cc1ccccc1` (stereo not drawn), the melting point was 90 to 92 °C.

Turning to `CC(=O)OCc1cc2ccccc2[nH]1`, the melting point is 112 °C.

`COc1cc2c(Nc3ccc(Sc4nccn4C)c(Cl)c3)c(C#N)cnc2cc1OCCCCl`: the melting point lay in the range of 271 to 276 °C.

Compound `CC(Oc1ccc(Oc2cnc3cc(Cl)ccc3n2)cc1)C(=O)Nc1ccc(OC(F)(F)F)cc1` (stereo not drawn) showed a melting point of 156 to 158 °C.

Compound `CCCCc1nc(SC)c(C(=O)OCC)n1Cc1cccc(-c2cccc(S(=O)(=O)NC#N)c2)c1` yielded a melting point of 112 °C.

Take `CCOC(=O)c1ccccc1C(=O)c1ccc2c(c1)C(C)(C)CCC2(C)C`: the melting point lay in the range of 58 to 59 °C.

In the case of `CC1=C(C=O)C(C)(C)c2c(C)c(C)c(C)c(C)c21`, the melting point was found to be 176 °C.

Turning to `COC(=O)c1cncn1C1CC2CCCCC2c2ccccc21` (stereo not drawn), the melting point was determined as 140 °C.

As to `CN(C)S(=O)(=O)c1ccc(N2CC(CO)OC2=O)cc1` (stereo not drawn), the melting point was in the range of 174 to 176 °C.

The compound `COCCCn1nnnc1-c1ccc(O)c(Br)c1O` displayed a melting point of 174 to 175 °C.

For the compound `O=C(O)Cc1ccc2c(c1)C(=O)c1ccccc1CN2`, the melting point was in the range of 132 to 143 °C.

The compound `COC(=O)c1cc(C(=O)N2CCSCC2)c2cc(Cc3ccc(F)cc3)cnc2c1O` returned a melting point of 184 to 185 °C.

Consider `CNC(=O)Oc1cc(C)c(NS(C)(=O)=O)c(C)c1`, for which the melting point lay in the range of 178 to 185 °C.

In turn, `CN1c2ccccc2CN(C(=O)C(F)(F)F)c2ccccc21` gave a melting point of 104 to 106 °C.

The compound `NS(=O)(=O)c1ccc(NCC(=O)Nc2ccccc2)cc1` gave a melting point of 257 to 258 °C.

As for `CCCc1csc2ncc(C(=O)OC)n12`, the melting point was 149 to 150 °C.

For the compound `CC(C)c1ccc2c(CCCCNS(=O)(=O)c3ccccc3)cc(C(=O)O)c-2cc1`, the melting point is 167 to 168 °C.

Compound `CCOc1ccc([N+](=O)[O-])c(F)c1` returned a melting point of 48 °C.

The compound `CCOC(=O)C(Cc1ccc(C(F)(F)F)cc1)C(=O)c1ccoc1` (stereo not drawn) came in with a melting point of 55 to 56 °C.

For the compound `O=C(O)C(=O)c1cc(F)c(OCCOc2ccc3ccccc3c2)c(F)c1`, the melting point is 129 to 130 °C.

Compound `Cc1ncc(CN2C(=O)c3ccccc3C2=O)n1-c1ccc(Cl)cc1C(=O)c1ccccc1F` came in with a melting point of 192 to 196 °C.

Turning to `Nc1ccccc1OCc1ccc2ccccc2n1`, the melting point is 62 to 64 °C.

On to `CCOC(=O)c1cc(OCC)c(OCC)cc1N`, for which the melting point was in the range of 69 to 71 °C.

`O=C([C@@H]1O[C@H]1c1ccccc1)N(CC1CC1)[C@@H]1CCCC[C@H]1O`: the melting point is 110 to 120 °C.

Compound `COc1ccc(-c2cc(=O)n(Cc3c(Cl)cccc3Cl)nc2-c2ccc(OC)cc2)cc1` yielded a melting point of 144 °C.

`COc1nc2cc([N+](=O)[O-])c(C)c(C(=O)Nc3ccc(C)cc3)c2nc1OC` returned a melting point of 214 to 215 °C.

For `COc1ccc(Cl)cc1C(=O)NCCc1ccc(Br)cc1`, the melting point is 104 to 109 °C.

Usually melting point stands for the temperature of the solid-liquid transition.
